Results reported in ChEMBL document CHEMBL1154782, “Discovery of Trp-His and His-Arg analogues as new structural classes of short antimicrobial peptides” (J Med Chem, 2009).
In brackets after ≈: the same amount, converted by molar mass. Where a SMILES comes first, the peptide text is derived from it.

What was measured:
Escherichia coli [1] = assay: Antibacterial activity against Escherichia coli ATCC 35218; format: functional, organism-based
Staphylococcus aureus [2] = assay: Antibacterial activity against methicillin-resistant Staphylococcus aureus DSM 50128509; format: functional, organism-based
[3] = test system: Staphylococcus epidermidis; assay: Antibacterial activity against methicillin-resistant Staphylococcus epidermidis DSM 50160384 after 15 to 18 hrs under aerobic condition by modified broth microdilution method; format: functional
L929 = assay: Cytotoxicity against mouse L929 cells up to 200 ug/mL after 5 days by MTT assay; format: cell-based; conditions: l929, 120 h
Candida albicans [4] = assay: Antifungal activity against Candida albicans ATCC 10231; format: functional, organism-based
Staphylococcus aureus [5] = assay: Antibacterial activity against methicillin-resistant Staphylococcus aureus DSM 50128509 after 15 to 18 hrs under aerobic condition by modified broth microdilution method; format: functional
Pseudomonas aeruginosa [6] = assay: Antibacterial activity against Pseudomonas aeruginosa ATCC 9027 after 15 to 18 hrs under aerobic condition by modified broth microdilution method; format: functional
Escherichia coli [7] = assay: Antibacterial activity against Escherichia coli ATCC 35218 after 15 to 18 hrs under aerobic condition by modified broth microdilution method; format: functional
Candida albicans [8] = assay: Antifungal activity against Candida albicans ATCC 10231 after 15 to 18 hrs under aerobic condition by modified broth microdilution method; format: functional
Klebsiella pneumoniae [9] = assay: Antibacterial activity against Klebsiella pneumoniae ATCC 700603 after 15 to 18 hrs under aerobic condition by modified broth microdilution method; format: functional
[10] = test system: Staphylococcus epidermidis; assay: Antibacterial activity against methicillin-resistant Staphylococcus epidermidis DSM 50160384; format: functional, organism-based
Klebsiella pneumoniae [11] = assay: Antibacterial activity against Klebsiella pneumoniae ATCC 700603; format: functional, organism-based
Pseudomonas aeruginosa [12] = assay: Antibacterial activity against Pseudomonas aeruginosa ATCC 9027; format: functional, organism-based

| SMILES | IC50 (Escherichia coli [1]) [µg/mL] | IC50 (Staphylococcus aureus [2]) [µg/mL] | MIC [3] [µg/mL] | Activity (L929) | IC50 (Candida albicans [4]) [µg/mL] | MIC (Staphylococcus aureus [5]) [µg/mL] | MIC (Pseudomonas aeruginosa [6]) [µg/mL] | MIC (Escherichia coli [7]) [µg/mL] | MIC (Candida albicans [8]) [µg/mL] | MIC (Klebsiella pneumoniae [9]) [µg/mL] | IC50 [10] [µg/mL] | IC50 (Klebsiella pneumoniae [11]) [µg/mL] | IC50 (Pseudomonas aeruginosa [12]) [µg/mL] |
| --- | --- | --- | --- | --- | --- | --- | --- | --- | --- | --- | --- | --- | --- |
| CC(C)(C)OC(=O)N[C@@H](Cc1c[nH]c(C(C)(C)C)n1)C(=O)N[C@@H](CCCNC(=N)N)C(=O)NCc1ccccc1 | 12 (≈ 21.6 µM) | 17.5 (≈ 31.5 µM) | > 200 | Non-toxic | 33.1 (≈ 59.5 µM) | 200 (≈ 359 µM) | > 200 | 100 (≈ 180 µM) | 200 (≈ 359 µM) | > 200 | – | – | – |
| COC(=O)[C@H](CCCNC(=N)N)NC(=O)[C@@H](N)Cc1c[nH]c(C(C)(C)C)n1 | 18.5 (≈ 48.4 µM) | 5.39 (≈ 14.1 µM) | 20 (≈ 52.4 µM) | Non-toxic | 9.65 (≈ 25.3 µM) | 20 (≈ 52.4 µM) | > 200 | 200 (≈ 524 µM) | 100 (≈ 262 µM) | 200 (≈ 524 µM) | 2.53 (≈ 6.63 µM) | 10.5 (≈ 27.6 µM) | – |
| COC(=O)[C@H](Cc1c[nH]c(C23CC4CC(CC(C4)C2)C3)n1)NC(=O)[C@H](Cc1c[nH]c2ccccc12)NC(=O)OC(C)(C)C | 6.59 (≈ 11.2 µM) | 1.69 (≈ 2.87 µM) | 50 (≈ 84.8 µM) | Non-toxic | 26.6 (≈ 45.1 µM) | 20 (≈ 33.9 µM) | > 200 | 100 (≈ 170 µM) | 200 (≈ 339 µM) | > 200 | 4.03 (≈ 6.83 µM) | – | – |
| N[C@@H](Cc1c[nH]c2ccccc12)C(=O)N[C@@H](Cc1c[nH]c(C23CC4CC(CC(C4)C2)C3)n1)C(=O)NCc1ccccc1 | 21.3 (≈ 37.8 µM) | 16 (≈ 28.3 µM) | 50 (≈ 88.5 µM) | Non-toxic | 8.25 (≈ 14.6 µM) | 100 (≈ 177 µM) | > 200 | 200 (≈ 354 µM) | 50 (≈ 88.5 µM) | 200 (≈ 354 µM) | 4.7 (≈ 8.32 µM) | 32 (≈ 56.6 µM) | – |
| N=C(N)NCCC[C@H](NC(=O)[C@@H](N)Cc1c[nH]c(C2CCCCC2)n1)C(=O)NCc1ccccc1 | 17.5 (≈ 36.3 µM) | 2.06 (≈ 4.27 µM) | 5 (≈ 10.4 µM) | Non-toxic | 18 (≈ 37.3 µM) | 20 (≈ 41.4 µM) | > 200 | 200 (≈ 414 µM) | 200 (≈ 414 µM) | 200 (≈ 414 µM) | 1 (≈ 2.07 µM) | 23.5 (≈ 48.7 µM) | – |
| COC(=O)[C@H](Cc1c[nH]c(C2CCCCC2)n1)NC(=O)[C@@H](N)Cc1c[nH]c2ccccc12 | – | 10.1 (≈ 23.1 µM) | 200 (≈ 457 µM) | Non-toxic | – | 100 (≈ 229 µM) | > 200 | > 200 | > 200 | 200 (≈ 457 µM) | 12.5 (≈ 28.5 µM) | 29.4 (≈ 67.1 µM) | – |
| COC(=O)[C@H](Cc1c[nH]c(C2CCC2)n1)NC(=O)[C@@H](N)Cc1c[nH]c2ccccc12 | 9.48 (≈ 23.2 µM) | 9.54 (≈ 23.3 µM) | 200 (≈ 488 µM) | Non-toxic | 18.2 (≈ 44.6 µM) | 200 (≈ 488 µM) | > 200 | 200 (≈ 488 µM) | 200 (≈ 488 µM) | > 200 | 14.5 (≈ 35.5 µM) | – | – |
| COC(=O)[C@H](Cc1c[nH]cn1)NC(=O)[C@@H](N)Cc1c[nH]c2ccccc12 (H-Trp-His-OMe) | 18.5 (≈ 52.1 µM) | – | > 200 | Non-toxic | 20.6 (≈ 58 µM) | > 200 | > 200 | 200 (≈ 563 µM) | 200 (≈ 563 µM) | > 200 | – | – | – |
| N[C@@H](Cc1c[nH]c2ccccc12)C(=O)N[C@@H](Cc1c[nH]c(C2CCCCC2)n1)C(=O)NCc1ccccc1 | – | 4.8 (≈ 9.36 µM) | 50 (≈ 97.5 µM) | Non-toxic | 8.41 (≈ 16.4 µM) | 10 (≈ 19.5 µM) | > 200 | > 200 | 100 (≈ 195 µM) | 50 (≈ 97.5 µM) | 7.54 (≈ 14.7 µM) | 17.4 (≈ 33.9 µM) | – |
| COC(=O)[C@H](CCCNC(=N)N)NC(=O)[C@H](Cc1c[nH]c(C2CCCCC2)n1)NC(=O)OC(C)(C)C | 4.93 (≈ 9.71 µM) | 10.1 (≈ 19.9 µM) | 100 (≈ 197 µM) | Non-toxic | 9.44 (≈ 18.6 µM) | 200 (≈ 394 µM) | 200 (≈ 394 µM) | 100 (≈ 197 µM) | 100 (≈ 197 µM) | > 200 | 10 (≈ 19.7 µM) | – | 27.5 (≈ 54.2 µM) |
| N=C(N)NCCC[C@H](NC(=O)[C@@H](N)Cc1c[nH]c(C23CC4CC(CC(C4)C2)C3)n1)C(=O)NCc1ccccc1 | 9.29 (≈ 17.4 µM) | 2.15 (≈ 4.02 µM) | 10 (≈ 18.7 µM) | Non-toxic | 7.46 (≈ 14 µM) | 5 (≈ 9.35 µM) | > 200 | 200 (≈ 374 µM) | 50 (≈ 93.5 µM) | 100 (≈ 187 µM) | 1.19 (≈ 2.23 µM) | 16.1 (≈ 30.2 µM) | – |
| COC(=O)[C@H](CCCNC(=N)N)NC(=O)[C@@H](N)Cc1c[nH]c(C2CCC2)n1 | 15.3 (≈ 40.3 µM) | 9.28 (≈ 24.5 µM) | 100 (≈ 264 µM) | Non-toxic | 14 (≈ 36.8 µM) | 200 (≈ 527 µM) | > 200 | 200 (≈ 527 µM) | 200 (≈ 527 µM) | > 200 | 6.66 (≈ 17.6 µM) | – | – |
